Data: US12018278B2, “Methods for chemically induced lineage reprogramming” (BeiHao Stem Cell and Regenerative Medicine Research …, priority 2017, dated 2024)

Tests used:
[1] = test system: XEN-like cells; assay: Stage 2 neural induction of TauEGFP-positive cells from XEN-like cells (FACS); type: cell-based, mouse; conditions: 0.1 μM LDN193189 and 5 μM SB431542 added to FCD; not essential to induce neurons
Method: On day 12, cells were switched into stage 2 neural specification medium. After 8-12 days induction by the stage 2 culture medium, TauEGFP-positive colonies were generated. The TauEGFP-positive colonies were further re-plated to co-culture with primary astrocytes or primary neurons for maturation.
The induced efficiency of the TauEGFP-positive cells was estimated using a FACS Calibur flow cytometer (Becton Dickinson), and the flow cytometry data were analyzed using FlowJo. For intracellular flow cytometry analyses, single-cell suspensions were stained with antibodies and analyzed using a BD FACSCalibur.

[2] = test system: passaged XEN-like cells; assay: Toxicity to passaged XEN-like cells in stage 2 neural induction medium; type: cell-based, mouse; conditions: 50 μM
Method: For neural induction from passaged XEN-like cells, cells were plated at 50,000-100,000 cells per well of a 6-well plate (with gelatin-coated) in stage 1 medium (day 0). Until passaged cells become 70-80% confluence on day2 or day3, switch the XEN-like cells into stage 2 neural induction medium. After 12-20 days, TauEGFP-positive colonies emerged. Considering that FSK used at high concentration 50 μM was toxic to passaged XEN-like cells at stage 2, a concentration of 10-20 μM in neural induction culture medium on passaged XEN-like cells is preferred.

[3] = test system: CeXEN cells; assay: Toxicity to CeXEN cells in stage 2 neural induction medium; type: cell-based, mouse; conditions: 50 μM
Method: CeXEN (chemically-derived eXEN) cells with TauEGFP reporter were derived from E3.5 blastocysts using stage 1 culture medium as previously reported (Zhao et al., Cell, 163:1678-1691 (2015)). Medium was changed every day and the cells were passaged at 1:20 to 1:30 every 3 days.
1. For chemical induction, CeXEN cells were plated at 50,000-100,000 cells per well of a 6-well plate (with gelatin-coated) in stage 1 medium (day 0).
2. On day2 or day3 until 70-80% confluence, cells were switched into stage 2 neural induction culture medium for 12-20 days and TauEGFP-positive cells were generated.
A relatively low initial cell density is beneficial for lineage induction from passaged CeXEN cells since the high proliferation rate of CeXEN cells. Considering that FSK used at high concentration 50 μM was toxic to CeXEN cells at stage 2, a concentration of 10-20 μM in neural induction culture medium on CeXEN cells is preferred.

[4] = test system: mouse adult lung fibroblasts (MAFs); assay: Induction of XEN-like cells from adult fibroblasts; type: cell-based; conditions: vitamin C (50 μg/ml) and CH55 (1 μM) added together to stage 1 medium; 12 days' induction
Method: (§1) Stage 1 culture medium preparation: KnockOut DMEM (Invitrogen) supplemented with 10% KSR (Invitrogen), 10% FBS (Pan-Biotech), 1% GlutaMAX™-I (Invitrogen), 1% NEAA (Invitrogen), 0.055 mM β-ME (Sigma), 1% penicillin-streptomycin (Invitrogen), 100 ng/ml bFGF (Origene) containing the small-molecule cocktail: 0.5 mM VPA, 2-4 μM TD114-2 or 20 μM CHIR, 10 μM 616452, 10 μM Tranylcypromine, 10-50 μM Forskolin, 0.05 μM AM580 and 5 μM EPZ004777 (VT6TFAE or VC6TFAE).

[5] = test system: induced TauEGFP-positive cells; assay: Whole-cell patch clamp recordings on induced TauEGFP-positive neurons; type: cell-based, mouse; conditions: for spontaneous excitatory postsynaptic currents (EPSCs): 20 μM CNQX plus 50 μM AP5, after co-culturing with primary astrocytes
Method: Whole-cell patch clamp recordings were performed as previously described (Li et al., Cell Stem Cell, 17:195-203 (2015)). The artificial cerebrospinal fluid extracellular solution contained (in mM) 141 NaCl, 2.5 KCl, 1.3 MgCl2, 2.4 CaCl2, 1.25 NaH2PO4, 10 glucose and 10 HEPES, the pH was adjusted to 7.4 with NaOH. Patch pipettes were pulled (˜5 MΩ tip resistance) with a P97 micropipette puller (Sutter Instruments) filled with internal pipette solution contained (in mM) 140 potassium gluconate, 1 CaCl2, 10 EGTA, 2 MgCl2, 5 Na2ATP, and 10 HEPES, the pH was adjusted to 7.4 with KOH. Patch-clamp recordings were taken using an EPC-10 amplifier (HEKA) with PatchMaster. Cell membrane potentials were held typically at −80 mV and depolarized to test potentials from −80 to +80 mV in 10 mV increments to record the sodium and potassium currents. The sample was 20 μs and sweep intervals were 2 s. For current-clamp recordings, a hyperpolarized current was injected into chemical neurons to membrane potentials around −70 mV. Action potentials were elicited by step-depolarized currents with sweep intervals of 3 s. The cells were held at 0 pA to record the resting membrane potentials. In current-clamp mode, the sample frequency was 25 kHz. Induced neurons identified by GFP were co-cultured with mouse primary astrocytes to record spontaneous excitatory postsynaptic currents (sEPSCs) or spontaneous inhibitory postsynaptic currents (sIPSCs). The induced neurons were held at a holding potential of −70 mV (close to the reversal potential of chloride) and 0 mV, respectively. The data were continuously digitized at 20 kHz. For neurotransmitter response, Glutamate (100 μM, Sigma-Aldrich) was dissolved in ACSF, loaded into a pipette, and puffed onto hciN cells using a picosprizer III (Parker Instrument) with 10 psi and […]. All recordings were conducted at room temperature.

[6] = test system: fibroblasts; assay: Stage 1 chemical induction of XEN-like primary colonies from fibroblasts; type: cell-based, mouse; conditions: replacing CHIR99021 with TD114-2 in the seven-compound cocktail; XEN-like state not altered
Method: as §1, with “VC6TFAE). For mouse adult lung fibroblasts (MAFs) induction, 1 μM CH55 and 50 μg/ml Vitamin C (VC) were added enhance the induction efficiency.” for “VC6TFAE).”
TauEGFP fibroblasts were prepared as previously reported (Li et al., Cell Stem Cell, 17:195-203 (2015)). Fibroblasts were seeded at a density of 30,000-50,000 cells per well of a 6-well plate or 300,000 cells per 100 mm dish (day −1) (Fibroblast medium−DMEM basal medium+10% FBS++beta-Me(0.055 mM)+1% PS). The culture plates or dishes were precoated with 0.1% gelatin.
The medium was changed to Stage 1 culture medium (Day 0). For stage 1 chemical reprogramming, cells were induced by the culture medium containing 0.5 mM VPA, 2-4 μM TD114-2 or 20 μM CHIR, 10 μM 616452, 10 μM Tranylcypromine, 10-50 μM Forskolin, 0.05 μM AM580 and 5 μM EPZ004777(VT6TFAE or VC6TFAE)) for 12 days. Culture medium was refreshed every 4 days during the inducing period. XEN-like colonies were formed at about day 6-8.

[7] = test system: XEN-like colonies; assay: Long-term passaging and expansion of XEN-like cells; type: cell-based, mouse; conditions: TD114-2 based culture condition; ratio 1:20-30 every 3-4 days
Text: Day 12 induced)(EN-like colonies (P0) were trypsinized from whole well and re-plated onto gelatin-coated culture plates at a ratio of 1:10-20 in stage 1 medium for the first passage. After the)(EN-like cells at Passage 1 become confluence, passage the cells at a ratio of 1:20-30 every 3-4 days in stage 1 medium. The XEN-like cells can be long term expanded at stage 1 medium for more than 20 passages with lineage specifying potentials.
For a single primary XEN-like colony passaging, feeder layers of mitomycin C-treated MEFs are needed. Pick up the a single primary XEN-like colony with 1 ml syringe, trypsinize for 5 min, and neutralize with stage 1 culture medium, then pipette up and down to obtain a single-cell suspension. Seed the cell suspension on feeder layers with stage 1 culture medium for further expansion. The subsequent passaging of XEN-like cells can be feeder-free.

[8] = test system: XEN-like cells; assay: qRT-PCR of neural, fibroblast and XEN genes in the absence of single Stage 2 medium components; type: cell-based, mouse; conditions: genes examined in the absence of the factor; FIG. 1F

With `NC(=O)c1ccc(-c2nc(-c3ccc4c(c3)OCO4)c(-c3ccccn3)[nH]2)cc1` [SB431542, 4-[4-(1,3-benzodioxol-5-yl)-5-(2-pyridinyl)-1H-imidazol-2-yl]benzamide] the “effect on neuron induction efficiency in stage 2 medium” value [1] was “favorable to enhance the induction efficiency”.

In the case of `C=C[C@@]1(C)CC(=O)[C@]2(O)[C@@]3(C)[C@@H](O)CCC(C)(C)[C@@H]3[C@H](O)[C@H](OC(C)=O)[C@@]2(C)O1` [Forskolin], the “toxicity to passaged XEN-like cells at stage 2” value [2] is reported as “toxic” and the “toxicity to CeXEN cells at stage 2” value [3] is reported as “toxic”.

`CC(C)(C)c1cc(C(=O)/C=C/c2ccc(C(=O)O)cc2)cc(C(C)(C)C)c1` [CH55] was tested, and the “efficiency of generating XEN-like cells from adult fibroblasts” value [4] was “significantly improved”.

With `c1ccc2c(-c3cnn4cc(-c5ccc(N6CCNCC6)cc5)cnc34)ccnc2c1` [LDN193189, 4-(6-(4-(piperazin-1-yl)phenyl)pyrazolo[1,5-a]pyrimidin-3-yl)quinolone] the “effect on neuron induction efficiency in stage 2 medium” value [1] was “favorable to enhance the induction efficiency”.

In the case of `NC(CCCP(=O)(O)O)C(=O)O` (stereo not shown) [AP5, 2-amino-5-phosphonovaleric acid], the “spontaneous excitatory postsynaptic currents (EPSCs)” value [5] is reported as “blocked”.

In the case of `O=C1NC(=O)C2=C1c1cn(c3ccccc13)CCOCCOCCOCCOCCn1cc2c2ccccc21` [TD114-2, 10,11,13,14,16,17,19,20,22,23-decahydro-9,4:24, 29-dimetheno-1H-dibenzo[n,t] pyrrolo[3,4-q] [1,4,7,10,13,22]-tetraoxadiazacyclotetracosine-31,33(32H) dione], the “yield of the primary colonies, enhancement” value [6] is reported as 3 fold and the “long term expansion of XEN-like colonies, passages tested” value [7] is reported as “at least 20 passages”.

With `N[C@@H](CCC(=O)O)C(=O)O` [Glutamate] the “membrane currents on focal application” value ([5]; 100 μM, focal application) was “induction of inward membrane currents”.

With `N#Cc1cc2[nH]c(=O)c(=O)[nH]c2cc1[N+](=O)[O-]` [CNQX, 6-cyano-1007-nitroquinoxaline-2,3-dione] the “spontaneous excitatory postsynaptic currents (EPSCs)” value [5] was “blocked”.

`NC1=N[C@H](O)[C@H]2[C@H]3O[C@]4(O)O[C@@H]([C@@H](O)[C@@]2(N1)[C@@H]4O)[C@]3(O)CO` [TTX, tetrodotoxin] was tested, and the “sodium currents (inward currents, voltage-clamp)” value [5] was “blocked”.

With `O=C1O[C@H]([C@@H](O)CO)C(O)=C1O` [vitamin C] the “efficiency of generating XEN-like cells from adult fibroblasts” value [4] was “significantly improved”.

B1: GDNF: growth factor in Stage 2 neural induction medium, 20 ng/ml (protein, UniProt P39905 78-211, looked up)
Glial cell line-derived …: SPDKQMAVLPRRERNRQAAAANPENSRGKGRRGQRGKNRGCVLTAIHLNVTDLGLGYETKEELIFRYCSGSCDAAETTYDKILKNLSRNRRLVSDKVGQACCRPIAFDDDLSFLDDNLVYHILRKHSAKRCGCI
In the case of B1, the “role of the stage 2 medium component for neural-, fibroblast- and XEN-specific gene expression” value [8] is reported as “important for inducing neuronal mater and functional genes”.
